Source: patent US8957062B2, “Substituted cyclopropyl compounds, compositions containing such compounds and methods of treatment” (Merck Sharp & Dohme Corp., priority 2011, dated 2015)

target: T1, human GPR119 (Homo sapiens, UniProt Q8TDV5); test: Measurement of GPR119 signaling (cAMP assay) in cells stably transfected with human GPR119; type: cell-based; details: cAMP stimulation; read-out: GPR119 HumC EC50
T1 sequence (Q8TDV5 1-308 limits assumed): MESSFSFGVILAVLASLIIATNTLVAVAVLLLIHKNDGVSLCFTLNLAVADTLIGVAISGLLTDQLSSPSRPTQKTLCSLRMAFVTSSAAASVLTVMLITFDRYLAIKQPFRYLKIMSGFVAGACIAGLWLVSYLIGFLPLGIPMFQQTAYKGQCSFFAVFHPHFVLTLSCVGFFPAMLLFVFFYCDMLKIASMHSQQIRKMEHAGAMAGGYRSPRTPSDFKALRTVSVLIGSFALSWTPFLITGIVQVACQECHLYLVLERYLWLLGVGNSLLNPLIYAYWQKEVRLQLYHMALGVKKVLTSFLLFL

How did the EC50 turn out when `CC(C)c1noc(N2CCC([C@H]3C[C@H]3CCOc3cc(F)c(CC(=O)N4CC(C)(O)C4)c(F)c3)CC2)n1` [Example 112] was run?
The EC50 was 2.4 nM.

Which EC50 does the source give for `CCC1(OC(=O)N2CCC([C@H]3C[C@H]3CCOc3ccc(CC(=O)N4CCC4)c(F)c3)CC2)CC1` [Example 74] here?
The EC50 was 2.7 nM.

How did the EC50 turn out when `CC1(OC(=O)N2CCC([C@H]3C[C@H]3CCOc3ccc(CC(=O)N4CCC[C@@H]4C(F)(F)F)c(F)c3)CC2)CC1` [Example 68] was run?
Its EC50 is 5.1 nM.

With `O=C(Cc1ccc(OCC[C@@H]2C[C@@H]2C2CCN(C(=O)OC3CCC3)CC2)cc1F)N1CCC1` [Example 71] as the molecule, how does the EC50 read?
Its EC50 is 1.4 nM.

With `CC1(O)CN(C(=O)Cc2ccc(OCC[C@@H]3C[C@@H]3C3CCN(C(=O)OC4(C)CC4)CC3)cc2F)C1` [Example 64] as the molecule, how does the EC50 read?
Its EC50 is 9.5 nM.

Which EC50 does the source give for `CC(C)c1noc(N2CCC([C@H]3C[C@H]3CCOc3ccc(CC(=O)N4CCC4)c(Cl)c3)CC2)n1` [Example 103] here?
Its EC50 is 0.58 nM.

With `CC(C)c1noc(N2CCC([C@H]3C[C@H]3CCOc3cc(F)c(CC(=O)N4CC(F)C4)c(F)c3)CC2)n1` [Example 110] as the molecule, how does the EC50 read?
Its EC50 is 0.12 nM.

`CC1(OC(=O)N2CCC([C@H]3C[C@H]3CCOc3ccc(CC(=O)N4CCC4)c(Cl)c3)CC2)CC1` [Example 69] was tested. Which EC50 did it give?
The EC50 was 1.5 nM.

same assay, conditions: stated in the example text; cAMP stimulation, human GPR119; read-out: GPR119 Human EC50

How did the EC50 turn out when `CC(C)c1noc(N2CCC([C@H]3C[C@H]3CCOc3ccc(Cc4nnco4)c(F)c3)CC2)n1` [Example 256, 4-((1R,2S)-2-{2-[3-fluoro-4-(1,3,4-oxadiazol-2-ylmethyl)phenoxy]ethyl}cyclopropyl)-1-(3-isopropyl-1,2,4-oxadiazol-5-yl)piperidine] was run?
The EC50 was 2.5 nM.

Which EC50 does the source give for `CC(C)COC(=O)N1CCC([C@H]2C[C@H]2CCOc2ccc(-n3cnnn3)cc2)CC1` [Example 1, isobutyl 4-((1R,2S)-2-(2-(4-(1H-tetrazol-1-yl)phenoxy)ethyl)cyclopropyl)piperidine-1-carboxylate] here?
Its EC50 is 1.6 nM.

For `CC(C)c1noc(N2CCC([C@H]3C[C@H]3CCOc3ccc(CC(=O)N4CCC4)cc3)CC2)n1` [Example 99, 4-[(1R,2S)-2-{2-[4-(2-azetidin-1-yl-2-oxoethyl)phenoxy]ethyl}cyclopropyl]-1-[3-(1-methylethyl)-1,2,4-oxadiazol-5-yl]piperidine], which EC50 is on record?
The EC50 was 1.8 nM.

`CC(C)c1noc(N2CCC([C@H]3C[C@H]3CCOc3ccc(-n4cnnn4)cc3)CC2)n1` [Example 98, 5-(4-((1R,2S)-2-(2-(4-(1H-tetrazol-1-yl)phenoxy)ethyl)cyclopropyl)piperidin-1-yl)-3-isopropyl-1,2,4-oxadiazole] was tested. Which EC50 did it give?
The EC50 was 11.8 nM.

same assay, conditions: table column; cAMP stimulation, human GPR119; read-out: GPR119 Human EC50

How did the EC50 turn out when `CS(=O)(=O)c1ccc(OCC[C@@H]2C[C@@H]2C2CCN(c3noc(C4CCCC4)n3)CC2)nc1` [Example 242] was run?
Its EC50 is 11.6 nM.

How did the EC50 turn out when `COCc1noc(N2CCC([C@H]3C[C@H]3CCOc3ccc(S(C)(=O)=O)cc3)CC2)n1` [Example 221] was run?
Its EC50 is 3.4 nM.

With `CC(C)c1noc(N2CCC([C@H]3C[C@H]3CCOc3ccc(CC(=O)N4CCc5nc(C(F)(F)F)sc5C4)c(F)c3)CC2)n1` [Example 184] as the molecule, how does the EC50 read?
The EC50 was 3.5 nM.

For `CC(C)c1noc(N2CCC([C@H]3C[C@H]3CCOc3ccc(CC(=O)N(C)CCn4cncn4)c(F)c3)CC2)n1` [Example 168], which EC50 is on record?
The EC50 was 7.9 nM.

For `Cc1nc(C#N)cc(OCC[C@@H]2C[C@@H]2C2CCN(C(=O)OC(C)(C)C)CC2)n1` [Example 47], which EC50 is on record?
Its EC50 is 0.2 nM.

`CC(C)c1noc(N2CCC([C@H]3C[C@H]3CCOc3ccc(CC(=O)N4Cc5nnc(C(F)(F)F)n5C(C)C4)c(F)c3)CC2)n1` (stereo partly shown) [Example 182] was tested. Which EC50 did it give?
The EC50 was 8.7 nM.

How did the EC50 turn out when `COCc1noc(N2CCC([C@H]3C[C@H]3CCOc3ccc(CC(=O)N4CC(F)(F)C4)c(F)c3)CC2)n1` [Example 200] was run?
Its EC50 is 1.2 nM.

With `CC(C)c1noc(N2CCC([C@H]3C[C@H]3CCOc3ccc(CC(=O)N4CC(C)(O)C4)c(F)c3)CC2)n1` [Example 140] as the molecule, how does the EC50 read?
The EC50 was 3.6 nM.

How did the EC50 turn out when `CC(C)(C)OC(=O)N1CCC([C@H]2C[C@H]2CCOc2cc(F)c(S(C)(=O)=O)c(F)c2)CC1` [Example 38] was run?
Its EC50 is 12 nM.

Which EC50 does the source give for `COCc1nc(N2CCC([C@H]3C[C@H]3CCOc3ccc(S(C)(=O)=O)cn3)CC2)no1` [Example 245] here?
The EC50 was 8.1 nM.

How did the EC50 turn out when `O=C(c1c(F)cc(OCC[C@@H]2C[C@@H]2C2CCN(c3nnc4ncccn34)CC2)cc1F)C1CC1` [Example 253] was run?
The EC50 was 3 nM.

Which EC50 does the source give for `O=C(CC1CCCC1)N1CCC([C@H]2C[C@H]2CCOc2ccc(-n3cnnn3)cc2)CC1` [Example 82] here?
The EC50 was 16 nM.

How did the EC50 turn out when `CCCC(=O)c1c(F)cc(OCC[C@@H]2C[C@@H]2C2CCN(c3nc(C(C)C)no3)CC2)cc1F` [Example 121] was run?
The EC50 was 0.1 nM.

For `CC(C)c1noc(N2CCC([C@H]3C[C@H]3CCOc3ccc(CC(=O)N(C)Cc4cc[nH]n4)c(F)c3)CC2)n1` [Example 167], which EC50 is on record?
Its EC50 is 3.1 nM.

With `CCS(=O)(=O)c1ccc(OCC[C@@H]2C[C@@H]2C2CCN(c3nc(C(C)C)no3)CC2)cc1F` [Example 28] as the molecule, how does the EC50 read?
The EC50 was 1.8 nM.

With `CCOC(=O)N1CCC([C@H]2C[C@H]2CCOc2cc(F)c(C(=O)C3CC3)c(F)c2)CC1` [Example 55] as the molecule, how does the EC50 read?
The EC50 was 1.1 nM.

With `CC(C)c1noc(N2CCC([C@H]3C[C@H]3CCOc3ccc(CC(=O)NC4CCC(F)(F)C4)c(F)c3)CC2)n1` (stereo partly shown) [Example 191] as the molecule, how does the EC50 read?
Its EC50 is 2.8 nM.

Which EC50 does the source give for `Cc1nc2c(o1)CCN(C(=O)Cc1ccc(OCC[C@@H]3C[C@@H]3C3CCN(c4nc(C(C)C)no4)CC3)cc1F)C2` [Example 196] here?
Its EC50 is 1.4 nM.

With `CC(C)c1noc(N2CCC([C@H]3C[C@H]3CCOc3ccc(CC(=O)N4CC(n5ccnc5)C4)c(F)c3)CC2)n1` [Example 188] as the molecule, how does the EC50 read?
The EC50 was 6.4 nM.

With `CC(C)c1noc(N2CCC([C@H]3C[C@H]3CCOc3cc(F)c(C(=O)C4CC4)c(F)c3)CC2)n1` [Example 120] as the molecule, how does the EC50 read?
The EC50 was 0.1 nM.

How did the EC50 turn out when `CCS(=O)(=O)c1ccc(OCC[C@@H]2C[C@@H]2C2CCN(C(=O)OC3(C)CC3)CC2)cc1` [Example 36] was run?
The EC50 was 14.5 nM.

With `CC(C)(C)OC(=O)N1CCC([C@H]2C[C@H]2CCOc2ccc(-n3cnnn3)cc2)CC1` [Example 5] as the molecule, how does the EC50 read?
The EC50 was 7 nM.

`CS(=O)(=O)c1ccc(OCC[C@@H]2C[C@@H]2C2CCN(C(=O)CC3CCC3)CC2)nc1` [Example 87] was tested. Which EC50 did it give?
The EC50 was 13 nM.

With `CC(C)c1noc(N2CCC([C@H]3C[C@H]3CCOc3ccc(CC(=O)N(C)Cc4ccon4)c(F)c3)CC2)n1` [Example 164] as the molecule, how does the EC50 read?
The EC50 was 1.7 nM.

For `CC(C)c1noc(N2CCC([C@H]3C[C@H]3CCOc3ccc(CC(=O)N4CCOCC4)c(F)c3)CC2)n1` [Example 142], which EC50 is on record?
The EC50 was 0.84 nM.

`COCc1noc(N2CCC([C@H]3C[C@H]3CCOc3ccc(CC(=O)N4CCC[C@@H]4C(F)(F)F)c(F)c3)CC2)n1` [Example 203] was tested. Which EC50 did it give?
The EC50 was 5.1 nM.

`CC(C)c1noc(N2CCC([C@H]3C[C@H]3CCOc3ccc(CC(=O)NC4CC4(F)F)c(F)c3)CC2)n1` (stereo partly shown) [Example 152] was tested. Which EC50 did it give?
The EC50 was 6.3 nM.

How did the EC50 turn out when `CC(C)c1noc(N2CCC([C@H]3C[C@H]3CCOc3ccc(CC(=O)N4CC(F)(F)C4)c(F)c3)CC2)n1` [Example 147] was run?
The EC50 was 0.55 nM.

Which EC50 does the source give for `O=C(NC1CC1)c1c(F)cc(OCC[C@@H]2C[C@@H]2C2CCN(C(=O)CCC(F)(F)F)CC2)cc1F` [Example 97] here?
Its EC50 is 3.5 nM.

`Cc1cc(CC(=O)N(C)C)cnc1OCC[C@@H]1C[C@@H]1C1CCN(c2nc(C(C)C)no2)CC1` [Example 263] was tested. Which EC50 did it give?
Its EC50 is 14 nM.

Which EC50 does the source give for `Cc1nc(C#N)cc(OCC[C@@H]2C[C@@H]2C2CCN(c3nnc4ncccn34)CC2)n1` [Example 254] here?
Its EC50 is 25 nM.
